Laboratory results taken from patent publication US20240277705A1, “DOSAGE REGIMENS FOR ECUBECTEDIN” (PHARMA MAR S.A., priority 2021, published 2024).

Tests used:
[1] = tested on: RXF 393 (renal carcinoma); assay: MTT cell viability assay, RXF 393; format: cell-based; conditions: Homo sapiens, RXF 393, 72 h; read-out: GI50, M (geometric mean, N = 3)
Text: Cell lines and cell culture: The following human cancer cell lines have been used in this example (the collection code and the tissue of origin are shown in brackets): • RXF 393 (NCI) (renal carcinoma) • Caki-1 (ATCC HTB-46) (kidney clear cell carcinoma)
Cell lines were obtained from the American Type Culture Collection (ATCC) or the National Cancer Institute (NCI). Cells were maintained in the appropriate culture medium, namely: • RPMI for RXF 393 • McCoy's 5A for Caki-1
All media were supplemented with 10% FBS, 2 mM L-Glutamine and 100 units/mL of penicillin-streptomycin.
Cell viability assay: To assess the antiproliferative activity of the compounds a colorimetric assay based on 3-(4,5-Dimethylthiazol-2-yl)-2,5-diphenyltetrazolium bromide (MTT) reduction was used. […] Culture medium was then removed and 100 μL of neat DMSO added to each well to dissolve the formazan product into a coloured solution whose absorbance at 540 nm was finally measured in a PolarStar Omega microplate multilabel reader (BMG Labtech, Ortenberg, Germany). […]
GI50 is finally used as reference value. […] To define a significant (ca. 70%) confidence interval for the geometric mean, its value must be multiplied and divided by the corresponding geometric standard deviation (GSD) which was also calculated. […]

MEXF 462NL (melanoma) = assay: Propidium iodide monolayer cell proliferation assay, MEXF 462NL; format: cell-based, human; conditions: MEXL 462NL
Protocol: Cell proliferation assay: A modified propidium iodide (PI) based monolayer assay was used to assess the anti-cancer activity of the compounds (Dengler WA, Schulte J, Berger DP, Mertelsmann R, Fiebig HH, Anti-Cancer Drugs 1995, 6: 522-532). Briefly, cells were harvested from exponential phase cultures, counted and plated in 96 well flat-bottom microtiter plates at a cell density of 4,000 to 30,000 cells/well dependent on the cell line's growth rate. After a 24 h recovery period, to allow the cells to resume exponential growth, 10 μl of culture medium (4 control wells/cell line/plate) or of culture medium with test compounds were added. PM14 was applied at ten concentrations in half-log increments in duplicates up to 3.16 pM and treatment continued for four days. […] After an incubation period of 1-2 hours at room temperature, fluorescence (FU) was measured using the Enspire Multimode Plate Reader (excitation A=530 nm, emission A=620 nm) to quantify the amount of attached viable cells.
IC50 and IC70 values were calculated by 4 parameter non-linear curve fit using Oncotest Warehouse Software. […]
IC50 values were determined as described in Example 2, but using the following human cancer cell lines: • MEXF 276L (melanoma) • MEXF 462NL (melanoma) • MEXF 1341L (melanoma)

SMILES: COc1c(C)cc2c(c1O)[C@@H]1[C@@H]3[C@@H]4SC[C@]5(N[C@H](CO)Cc6c5[nH]c5ccccc65)C(=O)OC[C@@H](c5c6c(c(C)c(OC(C)=O)c54)OCO6)N3[C@@H](O)[C@H](C2)N1C [PM14, ECUBECTEDIN]
- GI50 [1]: 0.621 nM
- IC50 (MEXF 462NL (melanoma); Homo sapiens, MEXF 462NL, read-out: IC50, μM (geometric mean)): 0.0001 µM
- IC70, μM (geometric mean) (MEXF 462NL (melanoma)): 0.0001 µM
